Tests used:
[1] = test system: Human immunodeficiency virus 1; assay: Antiviral activity against pseudo HIV1 infected in human 293T cells after 2 days by luciferase reporter gene assay in presence of human serum albumin; assay type: functional, organism-based; settings: Human immunodeficiency virus 1, HEK-293T, 48 h
[2] = Therapeutic index, ratio of CC50 for human 293T cells to EC50 for HIV1; assay type: cell-based; settings: read-out: Ratio CC50/EC50
[3] = biological target: Human immunodeficiency virus type 1 integrase (Human immunodeficiency virus 1, UniProt Q7ZJM1); assay: Inhibition of HIV1 integrase strand transfer by biochemical assay
Sequence of Human immunodeficiency virus type 1 integrase (Q7ZJM1 whole entry): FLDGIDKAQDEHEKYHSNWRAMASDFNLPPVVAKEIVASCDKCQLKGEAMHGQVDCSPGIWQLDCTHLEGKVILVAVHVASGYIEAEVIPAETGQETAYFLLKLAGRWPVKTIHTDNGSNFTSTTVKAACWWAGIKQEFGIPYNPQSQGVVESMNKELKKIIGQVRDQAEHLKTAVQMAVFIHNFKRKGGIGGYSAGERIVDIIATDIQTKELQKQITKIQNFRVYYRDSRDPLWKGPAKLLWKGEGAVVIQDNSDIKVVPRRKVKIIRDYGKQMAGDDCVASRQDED

[4] = test system: Human immunodeficiency virus 1; assay: Ratio of EC50 for pseudo HIV1 infected in human 293T cells in presence of human serum albumin to EC50 for pseudo HIV1 infected in human 293T cells; assay type: functional
[5] = test system: Human immunodeficiency virus 1; assay: Antiviral activity against pseudo HIV1 infected in human 293T cells after 2 days by luciferase reporter gene assay; assay type: functional, organism-based; settings: Human immunodeficiency virus 1, HEK-293T, 48 h
[6] = Selectivity index, ratio of CC50 for human MT4 cells to EC50 for HIV13B; assay type: toxicity, cell-based; settings: read-out: Ratio CC50/EC50
[7] = test system: Human immunodeficiency virus 1; assay: Antiviral activity against HIV1 3B infected in human MT4 cells assessed as inhibition of viral replication after 4-5 days by bioluminescence assay; assay type: functional, organism-based; settings: Human immunodeficiency virus 1, 3B
[8] = test system: Human immunodeficiency virus 1; assay: Antiviral activity against HIV1 Ba-L infected in human PBMC cells assessed as inhibition of viral replication after 7 days by [methyl-3H]dTTP incorporation assay; assay type: functional, organism-based; settings: Human immunodeficiency virus 1, Ba-L, 168 h

Row | EC50 [1] | IC50 [3] | EC50 [5] | EC50 [7] | SMILES | selectivity ratio [2] | Ratio EC50 [4] | selectivity ratio [6] | EC50 [8]
1 | 130 nM | 4 nM | 10 nM | – | CN(C)C(=O)Cn1c(=O)c(C(=O)NCc2ccc(F)cc2)c(O)c2ncc(Cc3ccc(F)cc3)cc21 | 1150 | 10 | – | –
2 | 480 nM | 32 nM | 39 nM | – | O=C(NCc1ccc(F)cc1C(F)(F)F)c1c(O)c2ncc(Cc3ccccc3)cc2[nH]c1=O | 90 | – | – | –
3 | 440 nM | 7 nM | 7 nM | – | COc1ccc(CNC(=O)c2c(O)c3ncc(Cc4ccc(F)cc4)cc3[nH]c2=O)cc1 | 1730 | – | – | –
4 | 460 nM | 10 nM | 13 nM | – | COc1cccc(CNC(=O)c2c(O)c3ncc(Cc4ccc(F)cc4)cc3[nH]c2=O)c1 | 1050 | – | – | –
5 | 330 nM | 6 nM | 9 nM | – | COc1ccccc1CNC(=O)c1c(O)c2ncc(Cc3ccc(F)cc3)cc2[nH]c1=O | 1540 | – | – | –
6 | 1100 nM | 8 nM | 21 nM | – | COc1ccc(CNC(=O)c2c(O)c3ncc(Cc4ccc(F)cc4)cc3[nH]c2=O)cc1OC | 680 | – | – | –
7 | 360 nM | 20 nM | 65 nM | – | CC(NC(=O)c1c(O)c2ncc(Cc3ccccc3)cc2[nH]c1=O)c1ccccc1 (centres undefined) | 79 | – | – | –
8 | 530 nM | 17 nM | 8 nM | 66 nM | Cn1c(=O)c(C(=O)NCc2ccc(F)cc2)c(O)c2ncc(Cc3ccc(F)cc3)cc21 | 1710 | – | 453 | –
9 | 640 nM | 18 nM | 70 nM | – | CCCn1c(=O)c(C(=O)NCc2ccc(F)cc2)c(O)c2ncc(Cc3ccccc3)cc21 | 99 | – | – | –
10 | 230 nM | 28 nM | 9 nM | – | CS(=O)(=O)c1ccc(Cn2c(=O)c(C(=O)NCc3ccc(F)cc3)c(O)c3ncc(Cc4ccccc4)cc32)cc1 | 1430 | 25 | – | –
11 | 220 nM | 19 nM | 26 nM | – | O=C(NCc1ccc(F)cc1)c1c(O)c2ncc(Cc3ccc(F)cc3)cc2n(CC(=O)N2CCCCC2)c1=O | 171 | 10 | – | –
12 | 45 nM | 8 nM | 3 nM | 15 nM | O=C(NCc1ccc(F)cc1)c1c(O)c2ncc(Cc3ccc(F)cc3)cc2n(CC(=O)N2CCOCC2)c1=O | 2880 | – | 347 | –
13 | – | 13 nM | 110 nM | – | O=C(NCc1ccc(F)cc1)c1c(O)c2ncccc2[nH]c1=O | 87 | – | – | –
14 | – | 1 nM | 400 nM | – | CC(C)n1c(=O)c(C(=O)NCc2ccc(F)cc2)c(O)c2ncccc21 | 30 | – | – | –
15 | 1540 nM | 6 nM | 110 nM | – | O=C(NCc1ccc(F)cc1)c1c(O)c2ncccc2n(C2CCCC2)c1=O | 79 | 14 | – | –
16 | 430 nM | 13 nM | 19 nM | 37 nM | O=C(NCc1ccc(F)cc1)c1c(O)c2ncc(Cc3ccccc3)cc2[nH]c1=O | 711 | – | 108 | –
17 | 280 nM | 6 nM | 8 nM | – | O=C(NCc1ccc(F)cc1)c1c(O)c2ncc(Cc3ccc(F)cc3)cc2[nH]c1=O | 1730 | – | – | –
18 | – | 35 nM | 120 nM | – | O=C(NCc1ccc(F)cc1Cl)c1c(O)c2ncc(Cc3ccccc3)cc2[nH]c1=O | 117 | – | – | –

Row | SMILES | EC50 [1] | IC50 [3] | EC50 [5] | EC50 [7] | selectivity ratio [2] | Ratio EC50 [4] | selectivity ratio [6] | EC50 [8]
19 | O=C(NCc1ccc(F)cc1)c1c(O)c2ncc(Cc3ccccc3)cc2n(CC2CC2)c1=O | 730 nM | 34 nM | 30 nM | – | 465 | – | – | –
20 | Nc1ccc(Cn2c(=O)c(C(=O)NCc3ccc(F)cc3)c(O)c3ncc(Cc4ccccc4)cc32)cc1 | 140 nM | 28 nM | 12 nM | – | 1130 | 12 | – | –
21 | O=C(NCc1ccc(F)cc1)c1c(O)c2ncc(Cc3ccccc3)cc2n(CCN2CCCC2=O)c1=O | 290 nM | 32 nM | 8 nM | – | 1770 | – | – | –
22 | O=C(NCc1ccc(F)cc1)c1c(O)c2ncc(Cc3ccc(F)cc3)cc2n(CCN2CCCC2=O)c1=O | 140 nM | 14 nM | 3 nM | 20 nM | 5600 | – | > 400 | 11 nM
